We go through 19 compounds from ChEMBL document CHEMBL4825780 (ACS Med Chem Lett, 2021).

Series [1] has as its target Cyclin-C/Cyclin-dependent kinase 19 (Homo sapiens, UniProt Q9BWU1). The series is described as follows: Inhibition of tracer 236 binding to recombinant human GST/His-tagged CDK11 (1 to 502 residues)/Cyclin C( 1 to 283 residues) expressed in insect cells by Lanthascreen assay.
In series [2] the target is CDK8/Cyclin C (Homo sapiens, UniProt P49336). As to the kind of experiment: Inhibition of tracer 236 binding to recombinant human His-tagged full length CDK8/Cyclin C expressed in baculovirus expression system by Lanthascreen assay. A general note: Time-resolved FRET reads energy transfer from a long-lived donor to a nearby acceptor.
Sequence of CDK8/Cyclin C (P49336 whole entry): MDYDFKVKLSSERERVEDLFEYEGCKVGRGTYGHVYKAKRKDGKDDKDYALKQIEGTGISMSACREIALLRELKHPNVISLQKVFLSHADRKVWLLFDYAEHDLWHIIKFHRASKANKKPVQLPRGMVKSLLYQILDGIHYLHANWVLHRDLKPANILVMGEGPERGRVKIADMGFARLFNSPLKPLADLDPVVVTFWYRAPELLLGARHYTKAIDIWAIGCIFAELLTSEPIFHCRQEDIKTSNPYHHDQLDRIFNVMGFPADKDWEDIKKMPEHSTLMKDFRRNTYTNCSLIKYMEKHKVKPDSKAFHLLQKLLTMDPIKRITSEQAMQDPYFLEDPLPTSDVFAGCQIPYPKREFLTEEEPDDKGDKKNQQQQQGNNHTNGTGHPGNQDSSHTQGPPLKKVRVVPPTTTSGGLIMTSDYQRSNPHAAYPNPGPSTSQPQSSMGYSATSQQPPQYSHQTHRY
Sequence of CDK8/Cyclin C (P24863 whole entry, further chain): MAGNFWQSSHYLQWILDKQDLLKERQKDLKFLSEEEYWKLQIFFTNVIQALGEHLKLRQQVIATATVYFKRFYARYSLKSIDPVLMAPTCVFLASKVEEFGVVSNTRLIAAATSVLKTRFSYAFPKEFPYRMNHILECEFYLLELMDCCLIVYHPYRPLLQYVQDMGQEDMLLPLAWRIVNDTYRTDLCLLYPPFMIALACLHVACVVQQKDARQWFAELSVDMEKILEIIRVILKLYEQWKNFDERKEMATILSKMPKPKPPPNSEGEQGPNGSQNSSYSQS
Series [3] addresses Cyclin-dependent kinase 8 (Homo sapiens, UniProt P49336).
Description: Inhibition of human CDK8 in human Jurkat cells assessed as inhibition of STAT1 phosphorylation at S727 residue measured after 24 hrs by Western blot assay
A short description of series [4]: Clearance in C57Bl/6 mouse at 10 mg/kg, po or 2 mg/kg, iv. Conditions: in vivo. The class given is ADME, organism-based.
Series [5] is described as follows: Oral bioavailability in C57Bl/6 mouse at 10 mg/kg. Type of series: ADME, organism-based. Conditions: in vivo.
The target of series [6] is T1, Serine/threonine-protein kinase 16 (Homo sapiens, UniProt O75716). The series is described as follows: Inhibition of human wild type partial length STK16 (G11 to I305 residues) expressed in bacterial expression system at 1 uM measured by Kinomescan method.
T1 sequence (O75716 whole entry, the tested form may be a part): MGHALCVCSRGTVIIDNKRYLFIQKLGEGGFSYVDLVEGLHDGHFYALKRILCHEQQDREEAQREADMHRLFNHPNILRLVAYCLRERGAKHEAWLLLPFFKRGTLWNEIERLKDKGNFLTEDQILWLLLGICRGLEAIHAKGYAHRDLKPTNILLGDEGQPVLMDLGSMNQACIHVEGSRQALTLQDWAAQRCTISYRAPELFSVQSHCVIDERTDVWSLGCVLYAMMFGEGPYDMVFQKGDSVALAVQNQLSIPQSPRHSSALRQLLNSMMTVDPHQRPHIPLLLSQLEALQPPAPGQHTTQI
Series [7] in a line: Metabolic stability in mouse hepatocytes assessed as half life. The class given is ADME, cell-based, Hepatocyte.
Series [8] deals with T1, Serine/threonine-protein kinase 16. The series is described as follows: Inhibition of human wild type partial length STK16 (G11 to I305) expressed in bacterial expression system by Kinomescan method.
For series [9], the system named is T2, Receptor-type tyrosine-protein kinase FLT3 (Homo sapiens), P36888 [D835V].
T2 sequence (whole entry): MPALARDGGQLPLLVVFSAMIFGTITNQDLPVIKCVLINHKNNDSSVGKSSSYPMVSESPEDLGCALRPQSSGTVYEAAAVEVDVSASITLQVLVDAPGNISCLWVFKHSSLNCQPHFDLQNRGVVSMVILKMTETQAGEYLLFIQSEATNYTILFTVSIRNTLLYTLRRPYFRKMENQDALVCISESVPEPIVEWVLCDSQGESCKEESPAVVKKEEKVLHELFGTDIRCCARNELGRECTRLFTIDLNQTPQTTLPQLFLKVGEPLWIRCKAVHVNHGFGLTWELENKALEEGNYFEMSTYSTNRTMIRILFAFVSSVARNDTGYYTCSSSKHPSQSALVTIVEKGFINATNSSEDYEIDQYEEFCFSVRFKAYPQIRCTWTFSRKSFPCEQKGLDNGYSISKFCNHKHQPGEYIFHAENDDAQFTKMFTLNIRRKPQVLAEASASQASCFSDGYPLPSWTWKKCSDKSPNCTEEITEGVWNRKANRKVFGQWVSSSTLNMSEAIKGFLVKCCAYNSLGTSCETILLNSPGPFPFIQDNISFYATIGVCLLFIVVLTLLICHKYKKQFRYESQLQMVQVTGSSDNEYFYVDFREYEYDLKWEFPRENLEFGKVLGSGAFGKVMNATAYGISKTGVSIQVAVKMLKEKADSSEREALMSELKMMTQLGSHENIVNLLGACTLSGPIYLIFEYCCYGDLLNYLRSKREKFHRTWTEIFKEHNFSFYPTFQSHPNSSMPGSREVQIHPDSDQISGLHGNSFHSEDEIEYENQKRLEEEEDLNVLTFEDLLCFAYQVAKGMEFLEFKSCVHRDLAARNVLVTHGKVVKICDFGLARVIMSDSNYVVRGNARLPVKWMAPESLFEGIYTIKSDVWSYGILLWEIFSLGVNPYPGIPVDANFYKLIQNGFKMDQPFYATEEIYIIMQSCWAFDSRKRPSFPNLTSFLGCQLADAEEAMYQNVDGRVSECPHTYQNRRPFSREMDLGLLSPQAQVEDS
The series is described as follows: Inhibition of human partial length FLT3 […] mutant (V592 to Y969 residues) expressed in mammalian expression system at 1 uM measured by Kinomescan method.

Series [10] in a line: Metabolic stability in mouse hepatocytes assessed as intrinsic clearance. Type of series: ADME, cell-based, Hepatocyte.
The nature of series [11]: AUC in C57Bl/6 mouse at 10 mg/kg, po. Conditions: in vivo. Type of series: ADME, organism-based. Details: dose 10 mg/kg.
Series [12] in a line: Volume of distribution at steady state in C57Bl/6 mouse at 10 mg/kg, po or 2 mg/kg, iv. Type of series: ADME, organism-based. The settings on record: in vivo, read-out: Vdss.
Series [13] can be described thus: Cmax in C57Bl/6 mouse at 10 mg/kg, po. Details: route oral, dose 10 mg/kg. The settings on record: in vivo. The class given is ADME, organism-based.
Series [14] in a line: Half life in C57Bl/6 mouse at 10 mg/kg, po. The class given is ADME, organism-based. Conditions: in vivo.

The source made the active and inactive calls. The rule behind the calls is not given here.

Sequence of Cyclin-C/Cyclin-dependent kinase 19 (Q9BWU1 whole entry, the tested form may be a part): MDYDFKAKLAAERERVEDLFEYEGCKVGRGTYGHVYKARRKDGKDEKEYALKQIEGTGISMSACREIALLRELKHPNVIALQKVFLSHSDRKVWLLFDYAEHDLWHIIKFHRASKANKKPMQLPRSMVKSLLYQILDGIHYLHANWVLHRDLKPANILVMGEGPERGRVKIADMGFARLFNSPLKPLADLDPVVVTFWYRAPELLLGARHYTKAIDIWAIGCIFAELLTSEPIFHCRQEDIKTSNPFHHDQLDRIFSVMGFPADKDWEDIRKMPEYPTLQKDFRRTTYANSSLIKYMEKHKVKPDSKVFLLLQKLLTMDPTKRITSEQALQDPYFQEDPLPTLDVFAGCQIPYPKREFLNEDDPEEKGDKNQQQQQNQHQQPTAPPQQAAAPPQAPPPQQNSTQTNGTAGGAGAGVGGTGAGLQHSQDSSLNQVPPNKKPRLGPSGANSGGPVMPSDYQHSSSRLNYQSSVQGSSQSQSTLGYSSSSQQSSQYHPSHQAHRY
Sequence of Cyclin-C/Cyclin-dependent kinase 19 (P24863 whole entry, further chain, the tested form may be a part): as the sequence (P24863 whole entry, further chain) above
Sequence of Cyclin-dependent kinase 8 (P49336 whole entry): as the sequence (P49336 whole entry) above

In the case of `O=C1NCCC12CCN(c1c(-c3ccc4[nH]cnc4c3)cnc3[nH]ccc13)CC2`, the IC50 turned out to be 17 nM in series [1] and 5 nM in series [2].

In series [3], `Cc1n[nH]c2ncc(C(=O)N3CCC[C@H]3c3ccc(Cl)cc3)cc12` displayed an IC50 of 3 nM.

Turning to `Cn1ncc2cc(-c3cnc4[nH]nc(Cl)c4c3N3CCC4(CCNC4=O)CC3)ccc21`, in series [4], the clearance came to 17 mL/min/kg. Moreover, the bioavailability in series [5] stood at 8%. The inhibition entry in series [6] and in series [9] was “Active” in each case. The IC50 in [1] turned out to be 2 nM; in series [8], 107 nM; in series [2], 1 nM; in [3], 2 nM. Further, the results for the half-life in series [7] and in series [14] were 46 min and 78 min, respectively. In [10], the “intrinsic clearance (CLint)” value came out at 15 µL/min/mg. Moreover, in [11], the AUC was 864 ng·h/mL. Also, the Vd in series [12] was 0.8 L/kg. The compound further yielded a Cmax in [13] of 104 ng/mL.

With `Cn1ncc2cc(-c3cnc4[nH]ccc4c3N3CCC4(CCNC4=O)CC3)ccc21`, the half-life in series [7] was found to be 9 min. Also, the “intrinsic clearance (CLint)” value in [10] stood at 78 µL/min/mg.

`O=C1NCCC12CCN(c1c(-c3ccc4ncsc4c3)cnc3[nH]ccc13)CC2`: the figures for the IC50 in series [1] and in series [2] were 80 nM and 25 nM, respectively.

For `O=C1NCCC12CCN(c1c(-c3ccc4scnc4c3)cnc3[nH]ccc13)CC2`, the figures for the IC50 in series [1] and in series [2] were 14 nM and 6 nM, respectively.

In the case of `Cn1ncc2cc(-c3cnc4[nH]ccc4c3N3CCC4(CC3)CNC4=O)ccc21`, the IC50 in [1] and in [2] was 6 nM in each case.

For the compound `Cn1ncc2cc(-c3cnc4[nH]ccc4c3N3CCC4(CC3)CNC(=O)O4)ccc21`, the IC50 in series [1] is 6 nM; in [2], 7 nM.

As for `Cn1ncc2cc(-c3cnc4[nH]ccc4c3N3CCC4(CCNC4=O)C3)ccc21` (stereo not drawn), the IC50 in series [1] is 29 nM; in series [2], 55 nM.

Take `Cn1ncc2cc(-c3cnc4[nH]cc(Cl)c4c3N3CCC4(CCNC4=O)CC3)ccc21`: the values for the IC50 in [1] and in series [2] were 10 nM and 2 nM, respectively. The half-life in series [7] came to 11 min. Moreover, the “intrinsic clearance (CLint)” value in [10] is 64 µL/min/mg.

Turning to `Cn1ncc2cc(-c3cnc4[nH]ccc4c3N3CCC4(CCCNC4=O)CC3)ccc21`, the IC50 in series [1] was 3 nM.

For `Cn1ncc2cc(-c3cnc4[nH]ccc4c3N3CCC4(CC3)NC(=O)NC4=O)ccc21`, the IC50 in series [1] came out at 2 nM.

Turning to `O=C1NCCC12CCN(c1c(-c3ccc4ncnn4c3)cnc3[nH]ccc13)CC2`, the results for the IC50 in series [1] and in [2] were 1020 nM and 274 nM, respectively.

Consider `Cn1ncc2cc(-c3cnc4[nH]ccc4c3N3CC4(CCNC4=O)C3)ccc21`, for which the IC50 in series [1] is 426 nM; in series [2], 538 nM.

In the case of `Cn1ncc2cc(-c3cnc4[nH]ncc4c3N3CCC4(CCNC4=O)CC3)ccc21`, the values for the IC50 in series [1] and in series [2] were 214 nM and 178 nM, respectively. Also, the half-life in series [7] stood at 11 min. Moreover, the “intrinsic clearance (CLint)” value in series [10] was 59 µL/min/mg.

Consider `Cn1ncc2cc(-c3cnc4[nH]ccc4c3N3CC4(CNC(=O)C4)C3)ccc21`, for which the IC50 in series [1] turned out to be 698 nM; in series [2] it was 916 nM.

Regarding `Cn1ncc2cc(-c3cnc4[nH]cnc4c3N3CCC4(CCNC4=O)CC3)ccc21`, the half-inhibitory concentration (IC50) in [1] amounted to 5 nM; in [2], 10 nM. For the same compound, in series [7], the half-life turned out to be 5 min. Besides, the “intrinsic clearance (CLint)” value in series [10] was determined as 158 µL/min/mg.

As to `Cn1cnc2cc(-c3cnc4[nH]ccc4c3N3CCC4(CCNC4=O)CC3)ccc21`, the IC50 in series [1] amounted to 50 nM; in [2], 32 nM.

With `O=C1NCCC12CCN(c1c(-c3ccn4ccnc4c3)cnc3[nH]ccc13)CC2`, the IC50 is 68 nM in series [1] and 76 nM in [2].

As a reminder, the IC50 is the concentration that gives 50% inhibition. In general, bioavailability refers to the share of a dose that reaches the circulation, judged against a reference dose that is usually intravenous. Broadly, the half-life is how long it takes for the measured level to halve. As a reminder, the AUC is concentration integrated over time. A lower AUC goes with less exposure. As a reminder, the Cmax is the highest concentration seen after dosing.
